The source of these data is US5135928A, “Triazolo derivatives and process for their preparation” (Egis Gyogyszergyar, priority 1989, dated 1992).

The structures appear in SMILES notation.

As a reminder, the ED50 is the dose that gives a 50% effect, or the effect in half of the subjects.

In one series the test system is mice. Nature of the series: Hexobarbital narcosis on mice. In kind it is in vivo. As to conditions: oral; for ED50: Mus musculus, 1 hour before Hexobarbital 40 mg/kg i.v., positive = sleeping time more than 2.5 times longer than control; for Therapeutical index: Hexobarbital narcosis. The procedure: 1. Hexobarbital narcosis on mice
Method: Kaergaard, Arch. Int. Pharmacodyn. 2, 170, (1967)
Groups consisting of 6 mice are used for each dose. The animals are treated orally with the test compound (the control group receives a vehicle), whereby sleeping is induced 1 hour later by administering a 40 mg/kg i.v. dose of Hexobarbital both to the test and control groups.
Animals which have a sleeping time more than 2.5 times longer than that of the control group are considered to show a positive reaction. ED50 values are calculated from the thus-transformed data.

A further series concerns rats. Nature of the series: Antianginal effect (vasopressin-induced experimental coronaria insufficiency, height of wave T in ECG). To be noted: Rattus norvegicus, iv, 2 minutes prior to vasopressin i.v.; narcotised male rats 180-220 g. In kind it is in vivo. As for the experimental part: Male rats of 180-220 g body weight were narcotised with chloralese-urethane(70/700 mg/kg ip.). The ECG was registered with needle electrodes in standard II leading. The experimental coronaria insufficiency was induced with vasopressin (4 NE/kg i.v.). The height of wave T in ECG was measured before and after the administration of vasopressin in both the control and treated groups. Test compounds were administered intravenously 2 minutes prior to the treatment with vasopressin.

As to `CN(N=Cc1c(Cl)cccc1Cl)C(=S)n1nc(N2CCOCC2)nc1N` [Example 5, 1-(5-Amino-3-morpholino-1H-1,2,4-triazol-1-yl)-N-methyl-N'-(2,6-dichlorobenzylidene)carbothiohydrazide], in the series with mice, it took a dose of 36 mg/kg to reach the 50% effect level (ED50) and the Therapeutical index turned out to be 27.8.
Taken in the same sequence, the figures for `CN(N=Cc1ccc(OCC(N)=O)cc1)C(=S)n1nc(N2CCOCC2)nc1N` [Example 7, 1-(5-Amino-3-morpholino-1H-1,2,4-triazol-1-yl)-N-methyl-N'-(4-carbamoylmethoxybenzylidene)carbothiohydrazide] were 110 mg/kg and 9.1.
`COc1cc(C=NN(C)C(=S)n2nc(SC)nc2N)ccc1O` [Example 22, 1-(5-Amino-3-methylthio-1H-1,2,4-triazol-1-yl)-N-methyl-N'-(4-hydroxy-3-methoxybenzylidene)carbothiohydrazide]: in the series with mice, the median effective dose (ED50) turned out to be 110 mg/kg and the Therapeutical index worked out at 5.1.
In the series with mice, `CC1Nc2nc(N3CCOCC3)nn2C(=S)N(C)N1` (centres unmarked) [Example 41, 6,8-Dimethyl-2-morpholino-5,6,8,9-tetrahydro[1,2,4]-triazolo-[1,5-d][1,2,4,6]tetrazepine-5(7H)-thione] registered an ED50 of 200 mg/kg and a Therapeutical index of 10.0.
In the series with mice, `CSc1nc2n(n1)C(=S)N(C)NC1(CCCCC1)N2` [Example 47, 6-Methyl-2-methylthio-5,6,8,9-tetrahydro[1,2,4]-triazolo[1,5-d][1,2,4,6]tetrazepine-5(7H)-thione-8-spiro-1'-cyclohexane] had a median effective dose (ED50) of 200 mg/kg and a Therapeutical index of 10.0.
As for `CN1NC2(CCCC2)Nc2nc(N3CCOCC3)nn2C1=S` [Example 48, 6-Methyl-2-morpholino-5,6,8,9-tetrahydro[1,2,4]-triazolo[1,5-d][1,2,4,6]tetrazepine-5(7H)-thione-8-spiro-1'-cyclopentane], it took a dose of 1.35 mg/kg to reach the 50% effect level in the series on rats (ED50).
As for `CN1NC2(CCCCCCCCCCC2)Nc2nc(N3CCOCC3)nn2C1=S` [Example 53, 6-Methyl-2-morpholino-5,6,8,9-tetrahydro-1,2,4-triazolo[1,5-d][1,2,4,6]tetrazepine-5(7H)-thione-8-spiro-1'-cyclododecane], in the series with mice, the ED50 amounted to 41 mg/kg and the Therapeutical index is on record as 48.8. Moreover, it took a dose of 1 mg/kg to reach the 50% effect level with rats (ED50).
`COC(=O)CC1(C)Nc2nc(SC)nn2C(=S)N(C)N1` (centres unmarked) [Example 57, 6,8-Dimethyl-8-methoxycarbonyl-methyl-2-methylthio-5,6,8,9tetrahydro[1,2,4]triazolo[1,5-d][1,2,4,6]-tetrazepine-5(7H)-thione] returned a 50% effective dose (ED50) with rats of 1.65 mg/kg.
For `CCOC(=O)CCC1(C)Nc2nc(N3CCOCC3)nn2C(=S)N(C)N1` (centres unmarked) [Example 58, 6,8-Dimethyl-8-(ethoxycarbonyl-ethyl)-2-morpholino-5,6,8,9-tetrahydro[1,2,4]triazolo[1,5-d][1,2,4,6]-tetrazepine-5(7H)-thione], in the series with mice, it took a dose of 160 mg/kg to reach the 50% effect level (ED50) and the Therapeutical index is reported as 12.5.
On to `CCCC(C)(COC(N)=O)COC(N)=O` [Meprobamate, reference compound], for which, in the series with mice, the median effective dose (ED50) stood at 270 mg/kg and the Therapeutical index was 4.1.
The compound `CC(Cc1ccccc1)NCCC(c1ccccc1)c1ccccc1` (centres unmarked) [Prenylamine, reference compound] came in with an ED50 in the series with rats of 6.5 mg/kg.
